Like-named read-outs stand apart in the source and are kept apart here.
Key:
erythrocyte AChE [1] = biological target: T1, erythrocyte AChE (Homo sapiens, UniProt P22303); design: from tissue; host or cells: human whole peripheral blood (erythrocytes), K2EDTA anticoagulant; method as in PMID 38008925; details: human blood; read-out: IC50, erythrocyte AChE inhibition; cited from earlier work
erythrocyte AChE [2] = biological target: T1, erythrocyte AChE; assay: biochemical; format: biochemical; design: from tissue; host or cells: human whole peripheral blood (erythrocytes), K2EDTA anticoagulant
Method: Ethanol (UPLC/MS grade) was ordered from Biosolve (Valkenswaard, The Netherlands). Ultrapure water used for experiments was prepared with a Sartorius Arium Pro ultrapure water system (Göttingen, Germany). Human whole peripheral blood with K2EDTA as an anticoagulant was used for the in vitro AChE inhibition assay. K2EDTA acts as an inhibitor to the paraoxonase 1 (PON1) enzyme,[23] preventing the underestimation of the inhibition potential of organophosphate oxons due to the nontarget clearance by PON1 present in the blood samples.
Inhibition of erythrocyte AChE by the organophosphate oxon or the corresponding oxon metabolite of an organothiophosphate was measured in vitro using the method previously described.[12] The ethanolic stock solution of the test oxon was first diluted 100 times with sodium phosphate buffer (100 mM, pH 7.4), and 10 μL of the diluted solution was added to 90 μL of human whole blood sample in a 48-wells flat-bottom transparent plate (Greiner Bio-One, The Netherlands). After a 30 min incubation at room temperature, the blood samples were then diluted 20 times with ultrapure water containing 0.03% Triton-X 100 (v/v), and 20 μL of the Triton-diluted blood was incubated for 20 min following the addition of 460 μL of DTNB and 20 μL of ethopropazine (an inhibitor to plasma butyrylcholinesterase (BuChE)). After that, 100 μL of ATC was added (final concentrations of ethopropazine, DTNB, and ATC were 20 μM, 1 mM, and 1 mM, respectively), and the absorbance at 436 nm was measured continuously to detect the remaining AChE activity. Controls were carried out by replacing the test compound with sodium phosphate buffer to correct for any background absorbance.
The benchmark response (BMR) of 5% for erythrocyte AChE inhibition is a conservative end point for deriving an effect level, since regulatory bodies usually use a higher BMR (i.e., 10% or 20%) for risk assessment of acute OP pesticide exposure.[24],[25] The European Food Safety Authority (EFSA) Web tool (https://efsa.openanalytics.eu/) integrated with the R package PROAST (version 70.0) was employed for the BMC analysis (see Supporting Information).

[3] = QSAR-based prediction; ref Punt et al. 2022; Moerenhout et al. 2024; cited from earlier work
erythrocyte AChE [4] = biological target: T1, erythrocyte AChE; details: cited from earlier work; for reported or expected adverse health outcome: human, single oral 1600 mg/kg BW, ref Table S2, 1600 mg/kg
erythrocyte AChE [5] = biological target: T1, erythrocyte AChE; assay: Exposure Activity Ratio (EAR) and Dietary Comparator Ratio (DCR) calculation; design: from tissue; host or cells: human whole peripheral blood (erythrocytes), K2EDTA anticoagulant; details: human, single oral 1600 mg/kg BW
Method: The DCR value for an exposure scenario was calculated as the ratio of EARtest and EARcomparator (eq 1). The EARtest is scenario-specific and was defined with the IC50 of the tested organophosphate oxon for in vitro erythrocyte AChE inhibition and the PBK model-simulated CBmaxoxon at the defined exposure level (eq 2).
The DCR-based predictions were evaluated by comparing the obtained DCR results with actual knowledge of the adverse health effects reported for the respective exposure scenarios. Adverse effects cannot be ruled out for human exposure scenarios with a DCR result greater than 1, while exposure scenarios with a DCR result less than or equal to 1 are considered to raise no safety concern.[18]−[20] Once validated as an adequate predicting tool, the DCR approach was applied for evaluating the safety of exposure scenarios, for which no information on the resulting toxic outcomes was reported at the defined dose levels for humans.

T1 sequence (P22303 32-617 isoform P22303-2 limits assumed): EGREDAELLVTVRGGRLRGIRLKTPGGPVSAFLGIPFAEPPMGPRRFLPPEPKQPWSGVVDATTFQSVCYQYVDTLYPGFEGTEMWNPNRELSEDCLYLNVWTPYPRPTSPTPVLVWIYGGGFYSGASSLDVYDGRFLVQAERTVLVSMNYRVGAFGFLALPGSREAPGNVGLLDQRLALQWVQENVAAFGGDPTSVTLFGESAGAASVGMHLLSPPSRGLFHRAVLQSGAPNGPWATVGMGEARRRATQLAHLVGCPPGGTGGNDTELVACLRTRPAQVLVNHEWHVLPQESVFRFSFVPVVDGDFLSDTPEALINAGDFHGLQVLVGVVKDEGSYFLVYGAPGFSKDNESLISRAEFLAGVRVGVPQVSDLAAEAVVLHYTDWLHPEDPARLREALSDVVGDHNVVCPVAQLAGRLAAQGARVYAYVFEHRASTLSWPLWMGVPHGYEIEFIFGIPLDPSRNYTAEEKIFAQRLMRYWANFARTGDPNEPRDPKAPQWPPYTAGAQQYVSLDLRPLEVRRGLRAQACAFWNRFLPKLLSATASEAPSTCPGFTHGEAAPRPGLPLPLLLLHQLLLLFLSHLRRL

SMILES	IC50 (erythrocyte AChE [1])	IC50 (erythrocyte AChE [2])	Oral absorption rate constant [3]	Reported concomitant effects (signs and symptoms) (erythrocyte AChE [4]; 1600 mg/kg BW (112 g) acute oral, person, ref Seno et al. 1998)	reported or expected adverse health outcome (erythrocyte AChE [4])	reported or expected adverse health outcome (erythrocyte AChE [4]; listed as Profenofos)	calculated DCR value (erythrocyte AChE [5])	calculated EARtest value (erythrocyte AChE [5])
COP(=O)(OC)Oc1ccc([N+](=O)[O-])c(C)c1 [fenitrooxon]	0.84 µM							
CCCSP(=O)(OCC)Oc1ccc(Br)cc1Cl (centres unmarked) [profenofos]		94.5 µM	0.90 h⁻¹	Died	positive	Yes	272	10.75
